From US20080235828A1 (University of Manitoba, priority 2004, published 2008)

How the values were obtained:
FCA-RRM = experiment: Preliminary ABA-binding assays using crude lysate from FCA-RRM; set-up: species or system Arabidopsis
Protocol: All binding assays were carried out at a final volume of 200 μL at 4° C. for 45 minutes. The mixture was then rapidly filtered through a nitrocellulose membrane, washed with 0.5× binding buffer, air dried and counted in a scintillation counter (Wallac 1414 WinSpectral v1.40). Heat denatured FCA protein was used to used determine the protein nature of the FCA and BSA was used as a control. […] […] Specific binding was calculated by taking the difference for assays with only ^3H^+-ABA (total binding) and assays that also contained 5 μM (±)-ABA added at the same time as ^3H^+-ABA (non-specific binding). Binding was represented as the number of moles of ^3H^+-ABA per mole of FCA protein.

ABAP1 = ABAP1 (Hordeum vulgare, UniProt Q9LLX3); experiment: ABA binding assay with purified recombinant ABAP1; set-up: species or system barley
Protocol: Other additions or changes to the incubation system are discussed in the figure legends. All binding assays were carried out at a final volume of 150 μL at 4° C. for 1 hour. The mixture was then rapidly filtered through a nitrocellulose membrane, washed with 5 mL, of cold 0.5× binding buffer by rapid filtration, dried in air and counted in a scintillation counter (Wallac 1414 WinSpectral v1.40). […] The DCC binding mixture was maintained for 15 minutes on ice before centrifugation to precipitate DCC. The resulted supernatant was then counted in a scintillation counter to determine the binding activity. […] Heat denatured ABAP1 protein was used to determine the protein nature of the ABAP1 and BSA was used as a control. All binding studies were carried out using three different protein purifications with triplicate assays for each purification. […] Binding was represented as the number of moles of ^3H^+-ABA per mole of ABAP1 protein.

FCA/FY interaction = experiment: GST pull-down of FCA/FY interaction in the presence of ABA; type: binding, Arabidopsis
Protocol: All in vitro translation and GST pull-down assays were carried out as described by supplier's protocols (Promega, Madison, Wis.) with modifications^S and as follows. For GST in vitro pull-down assays, 15 μL GST affinity resin was incubated with 250 μL FCA clear lysate, pelleted and the complex blocked and washed with IP buffer as described^S. For the determination of the amount of FCA bound to GST resin, the pellet was resuspended with 200 μL of 15 mM GSH to elute FCA and the supernatant was recovered by centrifugation. FY protein to be tested for interaction with the GST-FCA fusion protein was synthesized from a plasmid template and labeled with [^35S]-methionine using the T7 TNT coupled Transcription/Translation System (Promega). Twenty μL of FY labeled protein and 180 μL of interaction buffer (12.5 mM Tris-HCl, pH 7.3 containing 5 mM KCl, 1 mM MgCl2, and 100 mM NaCl) were used to resuspend the GST:FCA after the final wash. The protein binding/interaction reaction was carried out for 90 minutes at 4° C. with continuous gentle mixing. The newly formed complex was then washed three times with 500 μL of IP wash buffer. After the final wash, the complex was resuspended, first with 10 μL of 1 5 mM GSH to facilitate the dissociation of interacted proteins from GST resin and then 10 μL of 2×SDS-PAGE sample buffer was added to the mixture and boiled for 5 minutes for complete elution of the proteins from the agarose beads. The beads were pelleted by centrifugation and supernatant was loaded on a 12% SDS-PAGE gel. The gel was dried and exposed to Kodak X-ray film for 18 hours at −70° C. and film was developed for the detection of labelled proteins.
FCA was bound with […] for 30 minutes at which time the FCA/FY translated product was added to the incubation mixture. The interaction between FCA/FY was carried out in the presence of either (−)- or (+)-ABA in binding buffer as described above. Released proteins were separated on SDS-PAGE and labelled proteins were detected as described above. FCA-WW-FY was used as a control.

FCA protein = target: T1, FCA protein (Arabidopsis thaliana, UniProt O04425); experiment: ABA binding assay with purified recombinant FCA; set-up: other: in the absence of FY, at 15 min; other: in the absence of FY, at 45 min; fused on or other part: GST fused on; conditions: in the absence of FY
T1 sequence (O04425 1-747 isoform O04425-1): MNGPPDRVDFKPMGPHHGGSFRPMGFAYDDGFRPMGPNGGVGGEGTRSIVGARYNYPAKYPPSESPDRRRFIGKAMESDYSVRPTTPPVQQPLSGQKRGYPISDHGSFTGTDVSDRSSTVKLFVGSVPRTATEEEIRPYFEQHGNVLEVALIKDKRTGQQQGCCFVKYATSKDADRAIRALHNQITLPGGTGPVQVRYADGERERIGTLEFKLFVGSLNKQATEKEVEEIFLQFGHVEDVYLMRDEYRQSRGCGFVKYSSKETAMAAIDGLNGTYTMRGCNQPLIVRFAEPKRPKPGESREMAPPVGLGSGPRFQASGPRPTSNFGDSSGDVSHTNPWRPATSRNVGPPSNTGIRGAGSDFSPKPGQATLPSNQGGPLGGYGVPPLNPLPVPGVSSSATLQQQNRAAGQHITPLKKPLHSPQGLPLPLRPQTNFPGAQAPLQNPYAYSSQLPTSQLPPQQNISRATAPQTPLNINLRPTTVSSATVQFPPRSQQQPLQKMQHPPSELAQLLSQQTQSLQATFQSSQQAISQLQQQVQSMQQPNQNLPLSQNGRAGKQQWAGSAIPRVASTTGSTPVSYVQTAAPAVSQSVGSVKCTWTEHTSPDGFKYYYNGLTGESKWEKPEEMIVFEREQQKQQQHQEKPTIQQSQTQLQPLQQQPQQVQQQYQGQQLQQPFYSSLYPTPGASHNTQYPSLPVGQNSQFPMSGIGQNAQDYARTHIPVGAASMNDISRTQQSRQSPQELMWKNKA
Protocol: […] The mixture was then rapidly filtered through a nitrocellulose membrane, washed with 0.5× binding buffer, air dried and counted in a scintillation counter (Wallac 1414 WinSpectral v1.40). Heat denatured FCA protein was used to used determine the protein nature of the FCA and BSA was used as a control. All binding studies were carried out using three different GST affinity chromatography protein purifications with triplicate assays for each purification. […] Specific binding was calculated by taking the difference for assays with only ^3H^+-ABA (total binding) and assays that also contained 5 μM (±)-ABA added at the same time as ^3H^+-ABA (non-specific binding). Binding was represented as the number of moles of ^3H^+-ABA per mole of FCA protein.

Sequence of ABAP1 (Q9LLX3 entry or part of it): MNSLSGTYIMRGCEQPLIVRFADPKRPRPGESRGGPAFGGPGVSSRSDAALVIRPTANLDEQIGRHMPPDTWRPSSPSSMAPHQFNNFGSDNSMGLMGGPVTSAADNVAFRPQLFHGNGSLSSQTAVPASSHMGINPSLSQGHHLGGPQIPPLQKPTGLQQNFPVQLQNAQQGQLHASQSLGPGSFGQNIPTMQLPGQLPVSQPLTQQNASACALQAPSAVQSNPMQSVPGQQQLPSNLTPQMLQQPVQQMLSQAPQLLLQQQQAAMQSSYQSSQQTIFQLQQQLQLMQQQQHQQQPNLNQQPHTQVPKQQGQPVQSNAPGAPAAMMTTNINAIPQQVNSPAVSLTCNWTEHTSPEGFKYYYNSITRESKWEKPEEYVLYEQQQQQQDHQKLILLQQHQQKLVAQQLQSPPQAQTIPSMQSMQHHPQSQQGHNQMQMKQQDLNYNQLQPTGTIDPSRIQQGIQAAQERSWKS

## abscisic acid [ABA]
FCA-RRM
  3H+-ABA binding: did not show any
ABAP1; 3H+-ABA binding at varying pH
  pH of maximum binding activity: 7.3
ABAP1; Scatchard plot analysis, r^2=0.94
  maximum specific binding: 0.8 mol ABA mold protein
ABAP1; Scatchard plot, r^2=0.94
  ratio of ABA bound to ABAP1: approximately 0.8 mol ABA mol^−1 protein
ABAP1; additional time after reaching maximum binding
  time maximum binding activity remained stable: ≥ 3 h
ABAP1; association kinetics, total binding
  maximum binding activity (total binding): ≈ 0.7 mol ABA mol^−1 protein
ABAP1; in presence of 5 μM unlabelled ABA
  non-specific binding: less than 10 % of the total binding
FCA/FY interaction; FCA pre-bound with ABA for 30 min
  inhibition of FCA/FY interaction: significantly inhibited
FCA/FY interaction; at 1 μM ABA
  FCA/FY interaction remaining: virtually no significant interaction
FCA protein; at 15 min
  saturation of FCA 3H-(+)-ABA binding activity: approximately 50%
FCA protein; at 45 min
  saturation of FCA 3H-(+)-ABA binding activity: approximately 95%
